Test results reported in patent US20130065760A1, “Substituted Pyridines Having Herbicidal Action” (BASF SE, priority 2010, published 2013).

System: AMARE
Test: greenhouse experiment, post-emergence treatment, herbicidal activity
Assay type: in vivo, Amaranthus retroflexus
Details: post-emergence method, application rate 0.5 kg/ha, scale from 0 to 100
Text: The seeds of the test plants were sown separately for each species. For the post-emergence treatment, the test plants were first grown to a height of 3 to 15 cm, depending on the plant habit, and only then treated with the active ingredients which had been suspended or emulsified in water. For this purpose, the test plants were either sown directly and grown in the same containers, or they were first grown separately as seedlings and transplanted into the test containers a few days prior to treatment. Depending on the species, the plants were kept at 10-25° C. or 20-35° C. The test period extended over 2 to 4 weeks. During this time, the plants were tended, and their response to the individual treatments was evaluated. Evaluation was carried out using a scale from 0 to 100. 100 means no emergence of the plants, or complete destruction of at least the aerial moieties, and 0 means no damage, or normal course of growth. A good herbicidal activity is given at values of at least 70 and a very good herbicidal activity is given at values of at least 85. The plants used in the greenhouse experiments belonged to the following species: [table]

“3-[5-chloro-3-morpholino-2-(trifluoromethyl)phenyl]-1-(2,2-difluoroethyl)-4-hydroxy-1,5-naphthyridin-2-one [I-3]” was tested, and the “herbicidal activity against AMARE” value was “very good (a very good herbicidal activity is given at values of at least 85)”.
